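Assay format: 96-well plates, 48-hour exposure. At the TGI there is no net growth.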
Assays:
Assay in all cases: NCI tumour cell line growth inhibition, 48 h
IGROV1 ovarian = system: IGROV1 ovarian
HT29 colon = system: HT29 colon
LOX IMVI melanoma = system: LOX IMVI melanoma
LXFL 529 NSCLC = system: LXFL 529 NSCLC
OVCAR-3 ovarian = system: OVCAR-3 ovarian
M19-MEL melanoma = system: M19-MEL melanoma
OVCAR-5 ovarian = system: OVCAR-5 ovarian
HOP-62 NSCLC = system: HOP-62 NSCLC
DMS 273 small cell lung = system: DMS 273 small cell lung
MALME-3M melanoma = system: MALME-3M melanoma
NCI-H460 lung = system: NCI-H460 lung
RPMI-8226 leukemia = system: RPMI-8226 leukemia
EKVX NSCLC = system: EKVX NSCLC
UACC-62 melanoma = system: UACC-62 melanoma
HOP-92 NSCLC = system: HOP-92 NSCLC
A498 renal = system: A498 renal
A549 NSCLC = system: A549 NSCLC
HCC-2998 colon = system: HCC-2998 colon
UACC-257 melanoma = system: UACC-257 melanoma
NCI-H226 lung = system: NCI-H226 lung

In the case of O=C(Nc1cccc2ccccc12)Oc1ccccc1C1CCCCC1, the TGI (IGROV1 ovarian) is reported as 51.2 µM, the TGI (HT29 colon) is reported as 34.1 µM and the TGI (LOX IMVI melanoma) is reported as 31.1 µM. The TGI (LXFL 529 NSCLC) was 38.9 µM, the TGI (OVCAR-3 ovarian) was 39.5 µM and the TGI (M19-MEL melanoma) was 43.4 µM. For the same compound, the TGI (OVCAR-5 ovarian) was 32.1 µM, the TGI (HOP-62 NSCLC) was 33.1 µM and the TGI (DMS 273 small cell lung) was 38.1 µM. It also gave a TGI (MALME-3M melanoma) of 35.1 µM, a TGI (NCI-H460 lung) of 33 µM and a TGI (RPMI-8226 leukemia) of 81.9 µM. It also gave a TGI (EKVX NSCLC) of 65.9 µM, a TGI (UACC-62 melanoma) of 30.5 µM and a TGI (HOP-92 NSCLC) of 30.7 µM. For the same compound, the TGI (A498 renal) was 31.5 µM, the TGI (A549 NSCLC) was 44.1 µM and the TGI (HCC-2998 colon) was 34.3 µM. The TGI (UACC-257 melanoma) was 29.8 µM and the TGI (NCI-H226 lung) was 32.7 µM.
Cn1cnc([N+](=O)[O-])c1Sc1nc2cc(Cl)c(F)cc2[nH]1 was tested, and the TGI (IGROV1 ovarian) was 35.8 µM, the TGI (HT29 colon) was 47.3 µM and the TGI (LOX IMVI melanoma) was 39.7 µM. It also gave a TGI (LXFL 529 NSCLC) of 19.2 µM, a TGI (M19-MEL melanoma) of 23.9 µM and a TGI (OVCAR-5 ovarian) greater than 100 µM. It also gave a TGI (HOP-62 NSCLC) greater than 100 µM, a TGI (DMS 273 small cell lung) of 17.2 µM and a TGI (MALME-3M melanoma) of 27.5 µM. For the same compound, the TGI (NCI-H460 lung) was 27.7 µM, the TGI (RPMI-8226 leukemia) was 40.3 µM and the TGI (EKVX NSCLC) was 16.5 µM. The TGI (UACC-62 melanoma) was 28.6 µM, the TGI (HOP-92 NSCLC) was 28.9 µM and the TGI (A498 renal) was 51 µM. It also gave a TGI (A549 NSCLC) of 54.3 µM, a TGI (HCC-2998 colon) of 20.7 µM and a TGI (UACC-257 melanoma) of 25.2 µM. It also gave a TGI (NCI-H226 lung) of 33 µM.
With COC(=O)C(=O)C(C(=O)Nc1cccc(C)c1C)C1Sc2ccccc2NC1=O (centres undefined) the TGI (IGROV1 ovarian) was greater than 25 µM, the TGI (HT29 colon) was greater than 25 µM and the TGI (LOX IMVI melanoma) was greater than 25 µM. It also gave a TGI (LXFL 529 NSCLC) greater than 25 µM, a TGI (OVCAR-3 ovarian) greater than 25 µM and a TGI (M19-MEL melanoma) greater than 25 µM. It also gave a TGI (OVCAR-5 ovarian) greater than 25 µM, a TGI (HOP-62 NSCLC) greater than 25 µM and a TGI (DMS 273 small cell lung) greater than 25 µM. The TGI (MALME-3M melanoma) was 24 µM, the TGI (NCI-H460 lung) was greater than 25 µM and the TGI (RPMI-8226 leukemia) was greater than 25 µM. It also gave a TGI (EKVX NSCLC) greater than 25 µM, a TGI (UACC-62 melanoma) greater than 25 µM and a TGI (HOP-92 NSCLC) greater than 25 µM. It also gave a TGI (A498 renal) greater than 25 µM, a TGI (A549 NSCLC) greater than 25 µM and a TGI (HCC-2998 colon) greater than 25 µM. For the same compound, the TGI (UACC-257 melanoma) was greater than 25 µM and the TGI (NCI-H226 lung) was greater than 25 µM.
O=c1cnn(C/C=C\CO)c(=O)[nH]1 gave a TGI (IGROV1 ovarian) greater than 100 µM, a TGI (LOX IMVI melanoma) greater than 100 µM and a TGI (OVCAR-3 ovarian) greater than 100 µM. It also gave a TGI (OVCAR-5 ovarian) greater than 100 µM, a TGI (HOP-62 NSCLC) greater than 100 µM and a TGI (MALME-3M melanoma) greater than 100 µM. For the same compound, the TGI (NCI-H460 lung) was greater than 100 µM, the TGI (RPMI-8226 leukemia) was greater than 100 µM and the TGI (EKVX NSCLC) was greater than 100 µM. The TGI (HOP-92 NSCLC) was greater than 100 µM, the TGI (A498 renal) was greater than 100 µM and the TGI (A549 NSCLC) was greater than 100 µM. The TGI (HCC-2998 colon) was greater than 100 µM, the TGI (UACC-257 melanoma) was greater than 100 µM and the TGI (NCI-H226 lung) was greater than 100 µM.

From PubChem BioAssay (NCI)
